The text below walks through data of article PMC8901119 (Chemical Science, 2021).

Structures are written as SMILES. Values joined by “and” are separate entries in the source; they are usually repeats but may differ in a detail not shown here. Identical values can stand only once. Starred links: 1 amine or outer side, 2 acyl side, 3 side chain; linkers in the order of their positions; H or OH if unused. Non-standard residues stand in square brackets, D forms with d. Residues, ends and D or L forms follow the SMILES beside them. Ala(7-MeO-coumarin-4-yl) = COc1ccc2c(C[C@H](N)C(=O)O)cc(=O)oc2c1; X1 = C[C@H](NC(=S)[C@H](CCCNC(=N)N)N[*:1])C(=O)[*:2]

Series [1] concerns Cts L. Further details: method as in earlier work. To be noted: 10 µM, 24-hour treatment; ref 20 (ESI); cited from earlier work.
In series [2] the target is T1, Cathepsin L (Homo sapiens, UniProt P07711).
T1 construct: host or cells: MDA-MB-231 cells
Description: Cathepsin L inhibition assay in MDA-MB-231 cells (Magic Red). To be noted: for Cathepsin Activity (%), single technical replicates: normalized to 0.5% DMSO + Magic Red control, biological replicates 1 and 2. Format: cell-based. How it is done:
(§1) Phan et al. Electronic SupplementaryInformation
Cell Culture & Cathepsin L Inhibition Assays in MDA -MB-231 Cells
MDA-MB-231 cells (ATCC, #HBT-26) were seeded at 1 x 10^5/well in a black, 24-well, TC-treated plate (Corning). Cells were cultured in 400 µL media per well containing DMEM (Corning), 10% Fetal Bovine Serum (FBS; Atlanta Biologicals), and 1% Penicillin/Streptomycin (Gibco) at 37 °C in 5% CO2. After 48 hours, the cells in each well were treated with 400 µL fresh media containing either 0.5 % DMSO (sterile filtered; Sigma Aldrich), 20 µM SID 26681509 (a known Cts L inhibitor; Tocris), 10 µM E-64 (a known cell-permeable pan cathepsin inhibitor; Tocris), or 50 µM
RS1A. Cathepsin L activity in MDA-MB-231 cells were then evaluated using ICT’s Magic Red TM cathepsin-L substrate, MR-(FR) 2, according to the manufacturer’s protocol (Immunochemistry Technologies, LLC). After incubating the cells for 24 hours in the experimental conditions, 16 µL sterile Milli-Q H 2O (for the unstained cell controls) or 16 µL 26X Magic Red staining solution was added to each well, and the 24-well plate was covered with foil for 60 minutes in a 37°C incubator with 5% CO2. The media was removed from the cell monolayer surface and the cells were rinsed Dulbecco’s phosphate-buffered saline containing Mg 2+ and Ca2+ (DPBS; Corning) (2 x 500 µL DPBS/well with 1 min/rinse). The cells were then immediately visualized at 20X magnification with an Olympus CKX53 microscope with a Reflected Light Fluorescence Illuminator equipped with a green 530-550 nm exciter filler, 570 nm dichroic mirror , and a long pass 575 nm emission/barrier filter. Images were taken by Olympus EP50 camera via the Olympic EP app on an iPhone XR. Positive cells stained with Magic Red would appear red with more brightly stained vacuoles and lysosomes. […]
Cell fluorescence from raw images was analyzed using ImageJ -Fiji. The color images were first split into RGB channels; all Red-channel images were then quantified for integrated fluorescence density across the entire images at the same threshold. […]

Series [3] deals with T2, Cts S (Homo sapiens, UniProt P25774).
T2 construct: purchased Sigma-Aldrich; host or cells: FreeStyle 293-F cells
Description: Cathepsin S inhibition assay with Z-LR-AMC. The series is classed as biochemical. To be noted: approximate; competitive model. The protocol: as §1
Cathepsin S Inhibition Assay. For cathepsin S (Cts S, 2 mg/mL, solution; recombinant, expressed in FreeStyle™ 293-F cells, ≥90% pure by SDS-PAGE), various concentrations of the substrate Z- […]
A stock solution of 2 mg/mL enzyme in 45 mM Tris-HCl, pH 8.0, 124 mM NaCl, 2.4 mM KCl, 225 mM imidazole, 3 mM DTT, and 10% glycerol was diluted with assay buffer containing 5 mM DTT. Peptide (inhibitor) stock solutions […]
with the assay buffer. A 20 mM stock solution of the chromogenic substrate Z-LR-AMC (Bachem; […]
assay to ensure reproducibility. […]
progress curve (Figure S23). Similar to the analysis with Cts L, these curves were fit to Michaelis - Menten enzyme kinetic model in Prism 8 (GraphPad Software; La Jolla, CA) using Eq. S1 to determine Vmax and KM (Table S21). 5 Turnover number (k cat) was calculated by dividing Vmax by the enzyme concentration (Table S21).
(§2) Similar analysis was done for Cts V, Cts K, Cts S, and Cts B to evaluate and approximate the inhibitory effects of the thiopeptide RS1A. Initial evaluation of the kinetic parameters were obtained […]
(§3) 24), then the data were further analyzed with the non-linear regression method with a mixed - […]
the mechanism with the parameter α. Further fitting to an appropriate model (e.g. uncompetitive, competitive, or non-competitive model) was performed if needed. […]

Series [4] deals with T3, Cts L (Homo sapiens, UniProt P07711). Description: Cathepsin L inhibition assay with Z-FR-AMC. To be noted: Cts L, mixed inhibition model fit, Z-FR-AMC, pH 5.5, 27 °C.
Description: The peptide inhibitors were pre-incubated with the appropriate proteases in the assay buffer for 10 min to ensure full interactions prior being added to the fluorogenic substrates. The fluorescence of the reaction was monitored as a function of time at 460 nm with an excitation wavelength of 380 nm by a Tecan M1000 plate reader. Each assay was done in triplicates to ensure reproducibility.
Cathepsin L Inhibition Assay. For cathepsin L (Cts L, ≥ 0.5 units/mg protein, solution; from human liver), various concentrations of the substrate Z-FR-AMC (1 μM, 2 μM, 3 μM, 5 μM, 7
μM, 10 μM, 15 μM, and 20 μM) were reacted with 37.9 nM Cts L in a 96-well plate at 27 °C.
Assay buffer consisted of100 mM sodium acetate, 100 mM NaCl, 1 mM EDTA, and 5 mM DTT
with this KSP1 peptide were conducted in 12.3 mM Na2HPO4, 87.7 mM NaH2PO4, 100 mM NaCl,
5 mM DTT, 1 mM EDTA, pH 6.0 at 27 °C – the buffer condition used for this peptide construct
3 A stock solution of 220 μg/mL enzyme in 20 mM malonate, 1 mM EDTA, 400
mM NaCl, pH 5.5 was diluted with the assay buffer. Peptide (inhibitor) stock solutions were
prepared in a minimal amount of Milli-Q water then diluted to the desired concentrations with the
assay buffer. A 5 mM stock solution of the fluorogenic substrate Z-FR-AMC (Bachem; Torrance, CA, USA) was initially prepared in DMSO and diluted with assay buffer. The diluted solution of
Cts L was incubated in the assay buffer with or without the peptide inhibitor at room temperature
for 10 min. For each 50 μL reaction, 25 μL of this Cts L solution (either with or without the peptide inhibitor) was added to 25 μL diluted Z-FR-AMC substrate to initiate the reaction. The fluorescence of the reaction was monitored as a function of time at 460 nm with an excitation wavelength of 380 nm on the Tecan M1000 plate reader. Three independent trials were performed
for each assay to ensure reproducibility. For analysis, the fluorescence data was converted to rates
of proteolysis in terms of concentration (μM/min) by a conversion factor calculated from a linear
fit of the endpoint fluorescence at complete hydrolysis versus substrate concentration. The initial reaction rate was then calculated by extracting the slope of a linear fit of the first 2 min of the
progress curve (Figures S13-S19). These curves were fit to a Michaelis-Menten enzyme kinetic
Kinetics Analysis of the Peptide Inhibitors of Cathepsin L, V, K, B, and S
For Cts L, from initial evaluation of the kinetic parameters obtained from fitting to Michaelis-
data from Z-FR-AMC inhibition assays with Cts L was thus further fitted to a general Mixed
Inhibition Model in GraphPad Prism version 8.4.3 (GraphPad Software; La Jolla, CA), using
A mixed Inhibition Mechanism for Reversible Inhibitors. Abbreviations: E: enzymes;
S: substrate; I: inhibitor; P: product; EI: enzyme-inhibitor complex; ESI: enzyme-substrate-
inhibitor complex; KI: dissociation constant for the EI complex; αK I (also known as KI'):
dissociation constant for the ESI complex.
This general mixed-inhibition model uses a global fitting in which Vmax, KM, KI, constant α and are
shared. The constant α here determines the degree to which inhibitor binding changes the affinity
of the enzyme for substrate; the value of α is always greater than zero.5, 6 An α = 1 (K I = αKI)
complex (ES); the model then becomes identical to a noncompetitive inhibition model.5, 6 When α
> 1, the inhibitor binds preferentially to the free enzyme (E); if α = ∞, the inhibitor binds almost
exclusively the free enzyme and this model becomes identical to competitive inhibition.5, 6 If 0 <α
Series [5] concerns the target T4, Cts B (Homo sapiens, UniProt P07858).
T4 construct: cathepsin B (Cts B, ≥1,500 units/mg protein, solution; from human liver); purchased Sigma-Aldrich; host or cells: human liver (tissue-purified)
Kind of series: Cathepsin B inhibition assay with Z-RR-AMC. The series is classed as biochemical. To be noted: approximate; competitive model. How it is done:
as §1
Cathepsin B Inhibition Assay. For cathepsin B (Cts B, ≥1,500 units/mg protein, solution; from […]
and 5 mM DTT (pH 5.5). A stock solution of enzyme in 50 mM sodium acetate, pH 5.0, with 1 […]
Diluted solution of Cts B was […]
kinetic model in Prism 8 (GraphPad Software; La Jolla, CA) using Eq. S1 to determine Vmax and KM (Table S22). 5 Turnover number (k cat) was calculated by dividing Vmax by the enzyme concentration(Table S22).
as §2, §3
(§4) the mechanism with the parameter α. Further fitting to an appropriate model (e.g. uncompetitive, competitive, or non-competitive model) was performed if needed. The approximate kinetic parameters resulted from best fit models for the RS1A peptide and the corresponding proteases are […]
(§5) Table S24. Approximate Kinetic Parameters for Cts L, V, K, S, and B Inhibition by R S1A Peptide (μHLFR SAμ).
(§6) Protease α (Best Fitted Model) KI (μM) αKI or KI'
(§7) Cts S Very large (Competitive) 53.47 ± 11.42 - Cts B Very large (Competitive) >> 50 -

For series [6], the target named is T3, Cts L. Description: Cathepsin L activity assay with HepG2 whole cell lysate. The series is classed as biochemical. On the set-up: Cts L activity in human hepatocellular carcinoma HepG2 whole cell lysate; host or cells: HepG2 whole cell lysate. To be noted: 0.05 mg/mL lysate, 200 μM Ac-FR-AFC, 37 °C, 1 h. How it is done:
Cts L activity in human hepatocellular carcinoma HepG2 whole cell lysate (200 μg at 2.5 mg mL^−1; ab166833; Abcam, Cambridge, MA) was evaluated using a fluorometric Cathepsin L Activity Assay Kit (ab65306; Abcam, Cambridge, MA, USA) following the manufacturer's protocols. […] The cell lysate and the peptide inhibitor were incubated at room temperature for 10 min. A total of 2 μL of 10 mM CL substrate Ac-FR-AFC substrate (to a final concentration of 200 μM) was then added to each well, except the Lysate Background Control wells. Different concentrations (56 nM, 560 nM, and 1 μM) of SID 26681509, a known Cts L inhibitor, were used as positive controls. The samples were mixed; the plate was sealed to avoid evaporation and incubated at 37 °C for 1 h. The fluorescence of each sample was measured at 505 nm with an excitation wavelength of 400 nm on the Tecan plate reader. […]
Cts L activity in human hepatocellular carcinoma HepG2 whole cell lysate (200 µg at 2.5 mg/ml; ab166833; Abcam, Cambridge, MA, USA) was evaluated using a fluorometric Cathepsin L Activity Assay Kit (ab65306; Abcam) following the manufacturer’s protocols. […] The fluorescence of each sample was measured […]
fluorescence data shown in Figure 4 in the main text are the average of three replicates. […]

Series [7] deals with T5, Cts V (Homo sapiens, UniProt O60911).
T5 construct: purchased Sigma-Aldrich; host or cells: FreeStyle 293-F cells
Description: Cathepsin V inhibition assay with Z-LR-AMC. To be noted: pH 5.5, 27 °C, approximate. Format: biochemical. The protocol: as §1
Cathepsin V Inhibition Assay. For cathepsin V (Cts V, 0.38 mg/mL, solution; recombinant, expressed in FreeStyle™ 293-F cells, ≥90% pure by SDS-PAGE), various concentrations of the […]
A stock solution of 0.35 mg/mL enzyme
Three independent trials were
Similar to the analysis with Cts L, these curves
CA) using Eq. S1 to determine Vmax and KM (Table S19). 5 Turnover number (k cat) was calculated by dividing V max by the enzyme concentration (Table S19).
as §2, §3, §4, §5, §6, §7

The nature of series [8]: Stability of peptides in HepG2 whole cell lysate. The series is classed as in vitro ADME. To be noted: human, 20 μM peptide, 0.05 mg/mL lysate, HPLC. The protocol:
Stability of Peptides in HepG2 Whole Cell Lysate
Using the same conditions as the previous Cts L Activity Assay in HepG2 Whole Cell Lysate, 50 μL peptide (either R1A or RS1A; final concentration 20 μM) was incubated in 50 μL HepG2 whole cell lysate (to a final concentration of 0.05 mg/mL) in the assay buffer for different time points.
The all-amide peptide, R 1A, was incubated for t = 0, 5, 10, 15, 20, and 30 minutes. The thioamide peptide, RS1A, was incubated for t = 0, 2, 6, 8, 10, and 24 hours. After incubation for the desired amount of time, 100 μL methanol was added to the mixture and incubated at -20 °C for 10 minutes before spinning down at 13,000 rpm for 10 minutes. Then, 180 μL of each mixture was further diluted with 220 μL Milli-Q water to a total volume of 400 μL before adding 1 μL 0.42 mM coumarin internal standard for HPLC analysis. The coumarin internal standard was used to normalize the amount of intact peptide in each sample. A Phenomenex Luna® Omega 5 µm PS C18 100 Å analytical column was used to analyze all samples using the same gradient of 20-40 % B over 20 minutes (Solvent A: 0.1% TFA in Milli-Q water; Solvent B: 0.1% TFA in acetonitrile).
Representative HPLC spectra (325 nm) at different time points were also shown to confirm the stability of the peptides in HepG2 whole cell lysate (Figure S26 A & B). MALDI MS was used to confirm the mass from each fraction from the HPLC from experiment with the all-amide peptide (R 1A – expected [M+H]+ = 1133.51 m/z) and the thioamide peptide ( RS1A – expected [M+H]+ = 1149.48 m/z). To calculate the percent intact peptide for each sample, the average ratio of intact peptide to internal standard was compared to that ratio at t = 0. For each time point, the experiment

Series [9] concerns SARS-CoV-2 pseudovirus. Further details: method as in PMID 32221306. To be noted: HEK 293/hACE2 cells; cited from earlier work.

T3 sequence (P07711 114-333): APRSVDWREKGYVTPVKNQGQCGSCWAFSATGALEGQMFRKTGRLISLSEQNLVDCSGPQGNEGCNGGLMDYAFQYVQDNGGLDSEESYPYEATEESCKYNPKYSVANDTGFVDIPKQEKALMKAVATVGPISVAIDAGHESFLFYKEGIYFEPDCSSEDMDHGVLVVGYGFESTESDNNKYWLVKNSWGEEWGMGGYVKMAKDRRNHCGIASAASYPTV
T1 sequence (P07711 114-333): as above
T5 sequence (O60911 114-334): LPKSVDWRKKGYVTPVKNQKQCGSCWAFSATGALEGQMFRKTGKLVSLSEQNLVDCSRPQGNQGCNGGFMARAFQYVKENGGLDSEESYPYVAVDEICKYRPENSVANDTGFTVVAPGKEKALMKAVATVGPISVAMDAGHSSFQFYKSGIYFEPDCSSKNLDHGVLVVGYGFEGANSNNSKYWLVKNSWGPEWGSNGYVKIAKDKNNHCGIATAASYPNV
T2 sequence (P25774 115-331): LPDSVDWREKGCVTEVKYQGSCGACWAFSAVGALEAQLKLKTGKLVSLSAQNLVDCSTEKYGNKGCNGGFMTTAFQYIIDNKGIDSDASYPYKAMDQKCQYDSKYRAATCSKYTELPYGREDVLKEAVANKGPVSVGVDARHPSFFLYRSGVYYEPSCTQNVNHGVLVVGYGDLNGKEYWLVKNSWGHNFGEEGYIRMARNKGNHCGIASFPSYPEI

For the compound `CC(C)C[C@H](NC(=O)[C@H]1O[C@@H]1C(=O)O)C(=O)NCCCCN=C(N)N` [E-64], the “Reduction of Cts L activity in MDA-MB-231 cells” value is on record as 30-40% in series [1] and 32% in series [2] (10 µM, 24 hours). In addition, the “Cathepsin Activity (%), single technical replicates” value in series [2] (10 uM, 10 µM) was 74.2204% and 67.3402% and 72.3857% and 56.9211% and 49.1973% and 90.0663%.
Consider `COc1ccc2c(C[C@H](NC(=O)[C@H](C)NC(=S)[C@H](CCCNC(=N)N)NC(=O)[C@H](Cc3ccccc3)NC(=O)[C@H](CC(C)C)NC(=O)[C@H](Cc3c[nH]cn3)NC(=O)[C@@H](N)Cc3cc(=O)oc4cc(OC)ccc34)C(=O)O)cc(=O)oc2c1` [RS1A] (H-[Ala(7-MeO-coumarin-4-yl)]HLF[X1][Ala(7-MeO-coumarin-4-yl)]-OH), for which the results for the inhibition constant Ki in series [3], in series [4] and in series [5] were 53.5 ± 11.4 µM, 1.11 ± 0.22 µM and > 50 µM, respectively.
`COc1ccc2c(C[C@H](NC(=O)[C@H](C)NC(=S)[C@H](CCCNC(=N)N)NC(=O)[C@H](Cc3ccccc3)NC(=O)[C@H](CC(C)C)NC(=O)[C@H](Cc3c[nH]cn3)NC(=O)[C@@H](N)Cc3cc(=O)oc4cc(OC)ccc34)C(=O)O)cc(=O)oc2c1` [R^S1A] (H-[Ala(7-MeO-coumarin-4-yl)]HLF[X1][Ala(7-MeO-coumarin-4-yl)]-OH): in series [6], the 50% inhibitory concentration (IC50) – broadly, the concentration at which inhibition is half-maximal – was 19 µM and 19.3 µM. Moreover, the inhibition constant (Ki) (as a rule, a measure of affinity in units of concentration, obtained from inhibition or displacement) in series [7] is 26.2 ± 8.42 µM. Also, in series [8], the half-life (as a rule, how long it takes for the measured level to halve) at 20 μM is 28.6 h.
In the case of `CCc1ccccc1NC(=O)CSC(=O)NNC(=O)[C@H](Cc1c[nH]c2ccccc12)NC(=O)OC(C)(C)C` [SID 26681509], the “Cathepsin Activity (%), single technical replicates” value in series [2] (20 uM, listed as SID, 20 µM) was 93.8537% and 84.7857% and 75.9763% and 71.3834% and 62.7105% and 65.0709%. The “Decrease of SARS-CoV-2 pseudovirus entry” value in series [9] is given as “more than 76%”.
